System: 935938-334-R-J1-PDC complex spheroid viability
Assay: Anticancer human tumor 935938-334-R-J1-PDC patient-derived small intestine adenocarcinoma cell line growth inhibition [POLQ]
Conditions: for IC50: curve of first compound; for viability, T/C: stronger effect = lower value
How it was run: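 PDC + HUVEC + MSC complex spheroids; POLQ inhibitors ± partner drugs; top conc. at/near clinical Cmax, else 10 microM (SN-38 1 microM), half-log dilutions; 37 degrees C, 5% CO2.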

[1] = second compound 0.0316 µM, first compound 0.0316 µM
[2] = second compound 0.0316 µM, first compound 0.1 µM
[3] = second compound 0.0316 µM, first compound 0.316 µM
[4] = second compound 0.0316 µM, first compound 1 µM
[5] = second compound 0.0316 µM, first compound 3.16 µM
[6] = second compound 0.0316 µM, first compound 10 µM
[7] = second compound 0.1 µM, first compound 0.0316 µM
[8] = second compound 0.1 µM, first compound 0.1 µM
[9] = second compound 0.1 µM, first compound 0.316 µM
[10] = second compound 0.1 µM, first compound 1 µM
[11] = second compound 0.1 µM, first compound 3.16 µM
[12] = second compound 0.1 µM, first compound 10 µM
[13] = second compound 0.316 µM, first compound 0.0316 µM
[14] = second compound 0.316 µM, first compound 0.1 µM
[15] = second compound 0.316 µM, first compound 0.316 µM
[16] = second compound 0.316 µM, first compound 1 µM
[17] = second compound 0.316 µM, first compound 3.16 µM
[18] = second compound 0.316 µM, first compound 10 µM
[19] = second compound 1 µM, first compound 0.0316 µM
[20] = second compound 1 µM, first compound 0.1 µM
[21] = second compound 1 µM, first compound 0.316 µM
[22] = second compound 1 µM, first compound 1 µM
[23] = second compound 1 µM, first compound 3.16 µM
[24] = second compound 1 µM, first compound 10 µM
[25] = second compound 3.16 µM, first compound 0.0316 µM
[26] = second compound 3.16 µM, first compound 0.1 µM
[27] = second compound 3.16 µM, first compound 0.316 µM
[28] = second compound 3.16 µM, first compound 1 µM
[29] = second compound 3.16 µM, first compound 3.16 µM
[30] = second compound 3.16 µM, first compound 10 µM
[31] = second compound 10 µM, first compound 0.0316 µM
[32] = second compound 10 µM, first compound 0.1 µM
[33] = second compound 10 µM, first compound 0.316 µM
[34] = second compound 10 µM, first compound 1 µM
[35] = second compound 10 µM, first compound 3.16 µM
[36] = second compound 10 µM, first compound 10 µM
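Further: spheroids exposed to drugs for seven days before viability read.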
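Wherever viability, T/C is given: 100% = DMSO vehicle control wells.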

## CC1COCCN1c1cc(-c2ccnn2C)c2ccnc(-c3ccn[nH]3)c2n1 (centres undefined) + Nc1ccc(C#CCN(C(=O)Cc2ncc(C(F)(F)F)cc2C(F)(F)F)c2ccc(F)cc2)nn1
Second compound 0.0316 µM
  IC50: 0.0715 µM
Second compound 0.1 µM
  IC50: 0.0856 µM
Second compound 0.316 µM
  IC50: 0.0862 µM
Second compound 1 µM
  IC50: 0.0838 µM
Second compound 3.16 µM
  IC50: 0.0866 µM
Second compound 10 µM
  IC50: 0.0915 µM
[1]
  viability, T/C: 92.4%
[2]
  viability, T/C: 32.2%
[3]
  viability, T/C: 19.1%
[4]
  viability, T/C: 15.3%
[5]
  viability, T/C: 14.8%
[6]
  viability, T/C: 17.6%
[7]
  viability, T/C: 89.4%
[8]
  viability, T/C: 43.9%
[9]
  viability, T/C: 18.5%
[10]
  viability, T/C: 13.6%
[11]
  viability, T/C: 21.2%
[12]
  viability, T/C: 19.4%
[13]
  viability, T/C: 117%
[14]
  viability, T/C: 40%
[15]
  viability, T/C: 17.4%
[16]
  viability, T/C: 13.3%
[17]
  viability, T/C: 18.7%
[18]
  viability, T/C: 22%
[19]
  viability, T/C: 103%
[20]
  viability, T/C: 40.2%
[21]
  viability, T/C: 20.2%
[22]
  viability, T/C: 16.3%
[23]
  viability, T/C: 16.8%
[24]
  viability, T/C: 21.2%
[25]
  viability, T/C: 91.7%
[26]
  viability, T/C: 44%
[27]
  viability, T/C: 15.5%
[28]
  viability, T/C: 16.1%
[29]
  viability, T/C: 19.2%
[30]
  viability, T/C: 27.6%
[31]
  viability, T/C: 93.4%
[32]
  viability, T/C: 46.3%
[33]
  viability, T/C: 19.4%
[34]
  viability, T/C: 18.4%
[35]
  viability, T/C: 19.3%
[36]
  viability, T/C: 21.1%

## C#Cc1c(F)ccc2cc(O)cc(-c3ncc4c(N5CC6CCC(C5)N6)nc(OCC56CCCN5CC(F)C6)nc4c3F)c12 (centres undefined) + Nc1ccc(C#CCN(C(=O)Cc2ncc(C(F)(F)F)cc2C(F)(F)F)c2ccc(F)cc2)nn1
Second compound 0.0316 µM
  IC50: 5.75 µM
Second compound 0.1 µM
  IC50: > 10 µM
Second compound 0.316 µM
  IC50: 2.92 µM
Second compound 1 µM
  IC50: 2.85 µM
Second compound 3.16 µM
  IC50: > 10 µM
Second compound 10 µM
  IC50: 2.94 µM
[1]
  viability, T/C: 97.5%
[2]
  viability, T/C: 104%
[3]
  viability, T/C: 84.6%
[4]
  viability, T/C: 74.1%
[5]
  viability, T/C: 65%
[6]
  viability, T/C: 38.4%
[7]
  viability, T/C: 97.9%
[8]
  viability, T/C: 84.8%
[9]
  viability, T/C: 90.4%
[10]
  viability, T/C: 97.4%
[11]
  viability, T/C: 52.1%
[12]
  viability, T/C: 53.6%
[13]
  viability, T/C: 83.7%
[14]
  viability, T/C: 114%
[15]
  viability, T/C: 92%
[16]
  viability, T/C: 68.2%
[17]
  viability, T/C: 52%
[18]
  viability, T/C: 42.1%
[19]
  viability, T/C: 81.4%
[20]
  viability, T/C: 111%
[21]
  viability, T/C: 92.1%
[22]
  viability, T/C: 73.4%
[23]
  viability, T/C: 48.6%
[24]
  viability, T/C: 41.8%
[25]
  viability, T/C: 105%
[26]
  viability, T/C: 99.6%
[27]
  viability, T/C: 66.9%
[28]
  viability, T/C: 66.4%
[29]
  viability, T/C: 61.1%
[30]
  viability, T/C: 67.2%
[31]
  viability, T/C: 108%
[32]
  viability, T/C: 96.7%
[33]
  viability, T/C: 76.2%
[34]
  viability, T/C: 63.6%
[35]
  viability, T/C: 43%
[36]
  viability, T/C: 48.9%

Source: PubChem BioAssay AID1963829 (Molecular Pharmacology Branch, DTP, NCI, 2024)
